Data on 1 compound can be found in patent US8101761B2, “(E)-N-{3-[1-(8-fluoro-11H-10-OXA-1-AZA-dibenzo [A,D] cyclohepten-5ylidene)-propyl]-phenyl}-methanesulfonamide as glucocorticoid receptor modulator for the treatment of rheumatoid arthritis” (Eli Lilly and Company, priority 2008, dated 2012).

Like-named read-outs stand apart in the source and are kept apart here. Where only a bound is given, the exact number is not on record here.

Test [1] has as its target T1, human androgen receptor (AR) (Homo sapiens, UniProt P10275).
T1 construct: expressed in transfected cells; host or cells: HEK293, transient transfection, CMV promoter plasmid
T1 sequence (P10275 1-920): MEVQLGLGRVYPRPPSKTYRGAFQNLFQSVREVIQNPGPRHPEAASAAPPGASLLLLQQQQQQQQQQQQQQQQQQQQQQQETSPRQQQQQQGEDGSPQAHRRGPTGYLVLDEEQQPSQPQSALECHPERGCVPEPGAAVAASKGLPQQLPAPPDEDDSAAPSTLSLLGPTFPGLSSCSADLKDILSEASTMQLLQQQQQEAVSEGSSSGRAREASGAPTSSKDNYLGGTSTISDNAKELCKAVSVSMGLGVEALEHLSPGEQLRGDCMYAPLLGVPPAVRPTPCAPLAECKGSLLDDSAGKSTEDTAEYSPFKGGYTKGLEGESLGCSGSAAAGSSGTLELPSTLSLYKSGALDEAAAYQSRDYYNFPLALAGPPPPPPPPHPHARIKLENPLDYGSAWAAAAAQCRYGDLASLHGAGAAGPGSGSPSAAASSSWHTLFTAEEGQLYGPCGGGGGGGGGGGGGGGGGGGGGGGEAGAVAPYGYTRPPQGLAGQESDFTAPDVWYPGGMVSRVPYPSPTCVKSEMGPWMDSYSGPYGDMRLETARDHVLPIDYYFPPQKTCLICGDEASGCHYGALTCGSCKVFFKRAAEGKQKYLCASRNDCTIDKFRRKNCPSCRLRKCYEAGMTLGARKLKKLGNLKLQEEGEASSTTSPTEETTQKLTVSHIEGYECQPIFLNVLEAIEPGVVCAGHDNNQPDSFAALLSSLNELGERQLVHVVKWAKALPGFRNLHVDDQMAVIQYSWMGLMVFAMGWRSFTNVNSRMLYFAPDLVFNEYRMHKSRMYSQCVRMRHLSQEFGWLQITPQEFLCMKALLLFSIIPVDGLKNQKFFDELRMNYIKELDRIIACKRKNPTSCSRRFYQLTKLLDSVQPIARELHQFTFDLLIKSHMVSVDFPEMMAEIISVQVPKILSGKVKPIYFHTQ
The test is described as follows: Nuclear hormone receptor functional modulation assay (probasin ARE-luciferase reporter, HEK293), AR. Format: cell-based. The following applies: agonist mode, mean of n=4 or 5. The text has this:
The solvents, reagents, and ligands employed in the functional assay are readily available from commercial sources, or can be prepared by one of ordinary skill in the art.
Human embryonic kidney HEK293 cells are transfected with steroid hormone receptor and reporter gene plasmids using Fugene™ transfection reagent. Briefly, the reporter plasmid containing two copies of probasin ARE and TK(thymidine kinase) promoter upstream of the luciferase reporter cDNA, is transfected into HEK293 cells with a plasmid constitutively expressing human androgen receptor (AR) using viral CMV(cytomegalovirus) promoter. The reporter plasmid containing two copies of GRE and TK promoter upstream of the luciferase reporter cDNA is transfected with a plasmid constitutively expressing either human glucocorticoid receptor (GR), human mineralocorticoid receptor (MR), or human progesterone receptor (PR) using viral CMV promoter. […] After 24-hours incubation with test compounds, cells are lysed and luciferase activity is determined using standard techniques.
Data are fitted to a four parameter-fit logistic curve fit to determine EC50 values. […] IC50 values may be determined similarly using antagonist mode assay data. Percent inhibitions may also be determined relative to the response in the presence of agonist alone, as described above.
A general note: Reporter assays use an easily measured gene product as a stand-in for the process of interest.

The subject of test [2] is carrageenan-induced paw edema in male Sprague-Dawley rats. The test is described as follows: Carrageenan-induced paw edema (CPE) model. In kind it is in vivo. The following applies: rat, oral gavage 2 h before carrageenan, paws taken 3 h after, mean of 5 determinations. The text has this: Carrageenans are a group of polysaccharides which can induce an acute inflammatory response in animals. Cardinal signs of inflammation including edema, hyperalgesia and erythema are developed in the injection site immediately following injection. The CPE model is a recognized model of inflammation and can be used to evaluate the anti-inflammatory effects of glucocorticoid receptor ligands.
To evaluate the anti-inflammatory effects of Compound (I), the compound is formulated in a vehicle comprising 0.5% carboxymethyl cellulose and 0.25% Tween 80 then administered orally via gavage to male Sprague-Dawley rats (180-200 g). For comparison, prednisolone may be administered orally in the same vehicle. Two hours later, 1% carrageenan in 50 μl of 0.9% pyrogen free saline is injected into the subplantar regions of the right hind paw. Rats are euthanized by CO2 at 3 hours after the carrageenan injection. Paws are removed then weighed using a microbalance. Paws are then dissected by making several cuts on the paw surface and immediately immersing into liquid nitrogen until frozen. Frozen paws are then centrifuged to extract the exudates. Exudate levels of IL-1β, a cytokine generated during the inflammatory response is then measured by ELISA according to manufacturers instructions. Total paw protein is also measured using a protein assay kit and the absolute level of IL-1β is normalized to yield a concentration value of ng IL-1β/mg total protein.

As a reminder, the EC50 is the concentration at which the effect is half-maximal. The ED50 is the dose at which the effect has come halfway, by size or by number of responders. Consider `CC/C(=C1\c2ccc(F)cc2OCc2ncccc21)c1cccc(NS(C)(=O)=O)c1` [Compound (I), (E)-N-{3-[1-(8-Fluoro-11H-10-oxa-1-aza-dibenzo[a,d]cyclohepten-5-ylidene)-propyl]-phenyl}-methanesulfonamide], for which, in test [1] (relative to 100 nM methyltrienolone), the “efficacy in activating transcription, AR” value is “about 4.4%”. The 50% effective concentration (EC50) in test [1] (read-out: EC50 in activating transcription, AR) was > 10 µM. In addition, the 50% effective dose (ED50) is ~2.8 mg/kg in test [2] (read-out: ED50, inhibition of carrageenan induced paw weight gain) and ~3.2 mg/kg in test [2] (read-out: ED50, reduction of paw exudate levels of IL-1β).
